Among the data in PubChem BioAssay AID2615 (Southern Research Specialized Biocontainment Screening …, 2010) are TC50 values, retold here.

This experiment relates to BSC cells SV40 infection, CPE inhibition. In words: antiviral efficacy and BSC cell toxicity – BSC cells, SV40 T antigen inhibitor project, confirmation (AID 2615). The conditions noted are these: measured here: cytotoxicity in BSC cells.

In the case of `ClC(Cl)(c1nnnn1-c1ccccc1)c1nnnn1-c1ccccc1`, the TC50 came out at 34 µM.
